Test results: patent US9650379B2 (CHONG KUN DANG PHARMACEUTICAL CORP., priority 2013, dated 2017)

What was measured:
[1] = system: CTLA4 expression in iTreg (CD4+CD25+Foxp3+) cells; assay: CTLA4 assay in induced regulatory T cells; assay type: cell-based, C57BL/6 mouse; details: 6 days incubation
Description: In order to evaluate the effect of the compounds of the present invention on the expression of CTLA4, FOXP3+ induced regulatory T cells were induced from effector T cells (CD4+CD25−) isolated from the spleen of C57BL/6 mouse. Specifically, 6-week-old C57BL/6 mouse were purchased, and spleens were isolated therefrom, and separated into single cells by treatment with collagenase D. Effector T cells (CD4+CD25−, Teff) were separated from the mouse spleen cells using a CD4+CD25 regulatory T cell isolation kit (Miltenyi Biotec). Teff were plated on a 48-well plate at a density of 5×10^5 cells/well, and activated by adding a […] mAb-conjugated magnetic bead (T cell Activation/Expansion kit, Miltenyi Biotec) thereto. The activated cells were treated with TGF-β2 and each compound, and after 6 days, the cells were subjected to cell surface staining with CD4-PECy7 and CD25-APC (eBioscience) and to intracellular staining with FOXP3-Alexafluor488 and CTLA4-PE (eBioscience). Then, a change in the expression of CTLA4 in the induced regulatory T cells (iTreg) was analyzed by FACS Canto II (BD bioscience).

[2] = biological target: T1, HDAC6 human recombinant (Homo sapiens, UniProt Q9UBN7); assay: Inhibition of HDAC6 activity (fluorimetric assay); assay type: biochemical; details: test concentrations 0.1, 1, 10, 100 and 1000 nM; 37° C., 60 minutes
T1 construct: purchased Calbiochem 382180
T1 sequence (Q9UBN7 1-1215): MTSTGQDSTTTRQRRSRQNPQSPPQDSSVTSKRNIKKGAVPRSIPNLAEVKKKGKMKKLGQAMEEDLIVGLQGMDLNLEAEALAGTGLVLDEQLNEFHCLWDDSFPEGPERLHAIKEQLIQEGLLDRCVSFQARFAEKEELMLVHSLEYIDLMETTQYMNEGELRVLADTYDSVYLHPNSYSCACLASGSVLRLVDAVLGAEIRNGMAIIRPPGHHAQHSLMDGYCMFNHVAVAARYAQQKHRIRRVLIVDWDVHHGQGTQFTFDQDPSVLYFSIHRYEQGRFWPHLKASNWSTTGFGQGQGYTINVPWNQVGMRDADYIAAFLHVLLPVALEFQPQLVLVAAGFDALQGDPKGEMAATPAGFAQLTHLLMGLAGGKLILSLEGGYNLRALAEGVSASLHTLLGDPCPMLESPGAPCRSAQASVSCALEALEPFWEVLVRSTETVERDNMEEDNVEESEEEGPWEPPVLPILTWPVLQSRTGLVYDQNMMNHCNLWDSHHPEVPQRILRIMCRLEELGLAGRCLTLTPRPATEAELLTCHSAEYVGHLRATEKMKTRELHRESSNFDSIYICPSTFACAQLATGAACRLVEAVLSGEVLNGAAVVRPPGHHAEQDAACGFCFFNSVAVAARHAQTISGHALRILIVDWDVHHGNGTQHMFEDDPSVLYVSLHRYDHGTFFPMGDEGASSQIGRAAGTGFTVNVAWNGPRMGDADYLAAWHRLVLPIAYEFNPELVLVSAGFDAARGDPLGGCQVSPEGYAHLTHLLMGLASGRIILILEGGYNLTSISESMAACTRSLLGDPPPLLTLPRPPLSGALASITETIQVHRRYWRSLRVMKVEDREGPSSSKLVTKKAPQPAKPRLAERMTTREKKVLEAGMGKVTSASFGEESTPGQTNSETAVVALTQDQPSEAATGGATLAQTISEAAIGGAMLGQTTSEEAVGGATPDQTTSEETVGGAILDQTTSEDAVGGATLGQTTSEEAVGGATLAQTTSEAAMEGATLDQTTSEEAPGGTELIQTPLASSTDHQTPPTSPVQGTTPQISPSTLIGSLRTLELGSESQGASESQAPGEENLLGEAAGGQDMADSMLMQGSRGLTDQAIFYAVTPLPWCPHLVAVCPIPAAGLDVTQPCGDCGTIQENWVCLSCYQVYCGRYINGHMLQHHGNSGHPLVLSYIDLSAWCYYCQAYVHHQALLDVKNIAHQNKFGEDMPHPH
Outline: (§1)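 HDAC1 tested with the kit assay mixture at 100, 1000 and 10000 nM compound; recombinant human HDAC6 at 0.1, 1, 10, 100 and 1000 nM. Reaction ran 60 min at 37° C, then developer was added for 30 min at 37° C and fluorescence quantified.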

[3] = biological target: T2, HDAC1 (Homo sapiens, UniProt Q13547); assay: Inhibition of HDAC1 activity (HDAC1 fluorimetric drug discovery assay kit); assay type: biochemical; details: test concentrations 100, 1000 and 10000 nM; 37° C., 60 minutes
T2 construct: purchased Enzolifesciences BML-AK511
T2 sequence (Q13547 whole entry): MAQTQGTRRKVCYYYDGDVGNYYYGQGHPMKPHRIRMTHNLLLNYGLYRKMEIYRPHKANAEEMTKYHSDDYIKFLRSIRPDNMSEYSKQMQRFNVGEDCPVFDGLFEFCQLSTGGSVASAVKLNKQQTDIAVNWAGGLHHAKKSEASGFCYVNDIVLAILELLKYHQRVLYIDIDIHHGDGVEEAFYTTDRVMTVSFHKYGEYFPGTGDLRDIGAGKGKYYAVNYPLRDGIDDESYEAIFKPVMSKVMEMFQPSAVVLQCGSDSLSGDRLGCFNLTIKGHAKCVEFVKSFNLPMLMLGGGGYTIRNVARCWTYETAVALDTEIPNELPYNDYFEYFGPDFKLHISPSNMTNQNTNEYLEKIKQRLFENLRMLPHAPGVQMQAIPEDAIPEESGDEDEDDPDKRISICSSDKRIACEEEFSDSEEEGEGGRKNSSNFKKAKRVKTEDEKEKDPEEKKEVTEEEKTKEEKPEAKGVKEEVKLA
Outline: as §1

[4] = system: tubulin acetylation (HDAC6) in RPMI8226 cells; assay: Western blot analysis of tubulin acetylation in cells; assay type: cell-based; details: 24 hours, Western blot (FIG. 1)
Method: Specifically, RPMI8226 cells were seeded into a six-well plate at a density of 1.0×10^6 cells/well, and then treated with varying concentrations of each of compounds 636 and 642. After 24 hours, protein was extracted from the cells using RIPA buffer and quantified by the Bradford method. 25 μg of the protein was dissolved to sample buffer and electrophoresed on 4-12% gradient gel, and the gel was transferred to a nitrocellulose membrane for 50 minutes. The membrane was blocked in 5% skim milk solution for 1 hour. Anti-acetyl H3 antibody (1:2,000), anti-acetyl H4 antibody (1:5,000), anti-acetyl tubulin antibody (1:5,000) and anti-β-actin antibody (1:10,000) were added to 5% skim milk, and the membrane was immersed in the skim milk and allowed to react at 4° C. for 16 hours, after which it was washed three times with 1×TBS-T for 10 minutes each washing. IgG-HRP antibody (1:5,000) was added to 5% skim milk, and the membrane was immersed in the skim milk and allowed to react at room temperature for 40 minutes, after which it was washed three times with 1×TBS-T for 10 minutes each washing. Detection was performed by LAS 3000 using ECL solution.

[5] = system: effector T cells (Teff); assay: Viability (death) of Teff cells; assay type: cell-based, C57BL/6 mouse; details: treated for 24 hours
[6] = system: proliferation of effector T cells (Teff) co-cultured with Treg; assay: Regulatory T cell suppression function, Treg/Teff co-culture; assay type: cell-based, C57BL/6 mouse; details: Teff:Treg 2:1 co-culture, 3 days; vehicle group 27% suppression
Method: The effect of compound 636 on the proliferation of effector T cells in the co-culture condition of the regulatory T cells (Treg) and effector T cells (Teff) isolated from the spleen of C57BL/6 mouse was evaluated.
Specifically, 6-week-old C57BL/6 mouse were purchased, and spleens were isolated therefrom, and separated into single cells by treatment with collagenase D. Teff (CD4^+CD25^−) and Treg (CD4^+CD25^high) were isolated from the mouse spleen cells using a CD4^+CD25^high regulatory T cell isolation kit (Miltenyi Biotec). The Teff were stained with 5 μM Cell Proliferation Dye eFluor® 670 (eBioscience) at 37° C. under a light-shielded condition for 10 minutes, and incubated in cold complete media on ice for 5 minutes to stop the staining reaction, and then washed three times with complete media. The eFluor-stained effector T cells and the Treg were co-cultured on a U-bottom plate at a ratio of 2:1, and activated by adding a CD3εCD28 mAb-conjugated magnetic bead (T cell Activation/Expansion kit, Miltenyi Biotec) thereto. The activated cells were treated with compound 636, and after 3 days, the proliferation of the Teff was evaluated by analyzing the dilution pattern of eFluor® 670 with FACS Canto II (BD bioscience).

Compound: CC(C)(F)CN1CCN(c2ccnc3c2ccn3Cc2ccc(C(=O)NO)cc2)CC1 [Compound 642, 4-((4-(4-(2-fluoro-2-methylpropyl)piperazin-1-yl)-1H-pyrrolo[2,3-b]pyridin-1-yl)methyl)-N-hydroxybenzamide]
- increase of the expression of CTLA4 in the iTreg cells ([1]; concentration not stated separately): ≥ 2 times
- IC50 [2]: 9 nM
- IC50 [3]: 4310 nM
- compound concentration at which tubulin acetylation (HDAC6) appeared [4]: about 300 nM

Compound: CC(C)(F)CN1CCC(c2ccnc3c2ccn3Cc2ccc(C(=O)NO)cc2)CC1 [Compound 636, 4-((4-(1-(2-fluoro-2-methylpropyl)piperidin-4-yl)-1H-pyrrolo[2,3-b]pyridin-1-yl)methyl)-N-hydroxybenzamide]
- viability of the Teff versus non-drug-treated group [5]: did not differ
- increase of the expression of CTLA4 in the iTreg (CD4+CD25+Foxp3+) population ([1]; concentrations of 100 and 500 nM): 1.5-2 times
- IC50 [2]: 8 nM
- IC50 [3]: 930 nM
- suppression ratio of Teff relative to the vehicle group [6]: 2 times
- compound concentration at which tubulin acetylation (HDAC6) appeared [4]: about 300 nM
